Consider eight compounds from US10988523B2, “Modified lipidated Relaxin B chain peptides and their therapeutic use” (Sanofi, priority 2018, dated 2021).

The assay deals with T1, RXFP1 (Homo sapiens, UniProt Q9HBX9).
T1 construct: OVCAR5 cells expressing endogenous RXFP1; endogenous in cells; host or cells: OVCAR5 cells
T1 sequence (Q9HBX9 1-757): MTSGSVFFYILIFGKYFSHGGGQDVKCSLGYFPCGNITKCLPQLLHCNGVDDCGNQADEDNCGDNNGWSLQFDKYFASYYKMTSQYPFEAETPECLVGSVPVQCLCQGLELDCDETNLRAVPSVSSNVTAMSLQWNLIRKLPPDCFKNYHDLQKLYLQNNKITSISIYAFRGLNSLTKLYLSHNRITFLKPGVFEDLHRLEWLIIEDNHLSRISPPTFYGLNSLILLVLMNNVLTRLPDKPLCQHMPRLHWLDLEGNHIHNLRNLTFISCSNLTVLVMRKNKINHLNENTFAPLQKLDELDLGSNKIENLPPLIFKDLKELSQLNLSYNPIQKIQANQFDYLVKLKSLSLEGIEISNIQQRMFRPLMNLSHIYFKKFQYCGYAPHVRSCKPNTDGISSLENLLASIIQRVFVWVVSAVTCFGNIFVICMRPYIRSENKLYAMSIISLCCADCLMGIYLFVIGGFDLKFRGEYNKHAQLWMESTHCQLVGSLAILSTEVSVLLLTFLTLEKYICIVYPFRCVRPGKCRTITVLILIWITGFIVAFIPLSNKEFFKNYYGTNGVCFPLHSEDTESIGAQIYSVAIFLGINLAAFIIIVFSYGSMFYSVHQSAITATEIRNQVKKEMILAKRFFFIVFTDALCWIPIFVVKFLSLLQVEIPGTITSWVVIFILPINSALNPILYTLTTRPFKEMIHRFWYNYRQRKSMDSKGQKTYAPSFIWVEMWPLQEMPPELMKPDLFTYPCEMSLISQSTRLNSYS
Kind of assay: OVCAR5 cAMP assay (HTRF), RXFP1 agonist activity. It counts as cell-based. The note with it: for Emax: OVCAR-5, maximal cAMP relative to H2-relaxin maximum (100%), read-out: EMax, OVCAR 5 cells (cAMP); for EC50: OVCAR5 cells, cAMP HTRF, read-out: EC50 (nM), OVCAR 5 cells (cAMP). The gist of the method: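 cAMP accumulation readout: after 1 mM IBMX for 40 min, endogenous-RXFP1 OVCAR5 cells got rising peptide concentrations without FCS, 30 min, 37° C, then lysis with HTRF cAMP reagents. Nonlinear regression gave EC50; Emax expressed relative to H2-relaxin maximum, same occasion.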
In general terms: Changes in cAMP serve as a functional read-out for many G protein-coupled receptors.

One may read the Emax as the greatest response seen or fitted, relative to the assay's reference. The term EC50 denotes the concentration that produces a half-maximal response.

*1 amine or outer side, *2 acyl side, *3 side chain or, on linkers, in order; H or OH if unused. Where a SMILES comes first, the peptide text is derived from it. Side-chain parts run from the residue outwards. [ ]: non-standard residue; d: D form. The star is where a group is joined. γGlu = O=C(O)[C@H](CCC(=O)[*:2])N[*:1]; Pentadecanoyl = CCCCCCCCCCCCCCC(=O)*; Stearoyl = CCCCCCCCCCCCCCCCCC(=O)*; Palmitoyl = CCCCCCCCCCCCCCCC(=O)*; Cit = NC(=O)NCCC[C@H](N)C(=O)O; αMeK = C[C@](N)(CCCCN)C(=O)O; Nle = CCCC[C@H](N)C(=O)O; AEEA = NCCOCCOCC(=O)O; Aib = CC(C)(N)C(=O)O

As to `CCCCCCCCCCCCCCCC(=O)N[C@@H](CCC(=O)N[C@@H](CCC(=O)N[C@@H](CCC(=O)N[C@@H](CCC(=O)NCCOCCOCC(=O)NCCOCCOCC(=O)NCCOCCOCC(=O)NCCOCCOCC(=O)NCCCC[C@H](NC(=O)[C@H](CCCCNC(C)=O)NC(=O)[C@H](CCCCN)NC(=O)[C@H](CCCNC(=N)N)NC(=O)C(C)(C)NC(=O)[C@H](CO)NC(=O)[C@H](Cc1c[nH]c2ccccc12)NC(=O)[C@@H](NC(=O)[C@H](CO)NC(=O)[C@H](CCCC)NC(=O)CNC(=O)[C@H](CCC(=O)O)NC(=O)C(C)(C)NC(=O)C(C)(C)NC(=O)[C@@H](NC(=O)[C@H](CCCCNC(C)=O)NC(=O)[C@H](C)NC(=O)[C@H](CCCNC(=N)N)NC(=O)[C@@H](NC(=O)[C@H](CCCCN)NC(=O)[C@H](CCC(=O)O)NC(=O)[C@H](CCCNC(=N)N)NC(=O)CNC(=O)[C@H](CCC(=O)O)NC(=O)[C@H](CC(C)C)NC(C)=O)C(C)C)[C@@H](C)CC)[C@@H](C)O)C(N)=O)C(=O)O)C(=O)O)C(=O)O)C(=O)O` [compound 130] (Ac-LEGREKVRAK(Ac)I[Aib][Aib]EG[Nle]STWS[Aib]RKK(Ac)K([AEEA-AEEA-AEEA-AEEA-γGlu-γGlu-γGlu-γGlu-Palmitoyl])-NH2), the Emax is 93%.

`CCCCCCCCCCCCCCCC(=O)N[C@@H](CCC(=O)N[C@@H](CCC(=O)NCCCC[C@H](NC(=O)CC[C@H](NC(=O)CC[C@H](NC(=O)COCCOCCNC(=O)COCCOCCNC(=O)COCCOCCNC(=O)COCCOCCNC(=O)[C@H](CCCCNC(C)=O)NC(=O)[C@H](CCCCN)NC(=O)[C@H](CCCNC(=N)N)NC(=O)[C@](C)(CCCCN)NC(=O)[C@H](CO)NC(=O)[C@H](Cc1ccccc1)NC(=O)[C@@H](NC(=O)[C@H](CO)NC(=O)[C@H](CCCC)NC(=O)CNC(=O)[C@H](CCC(=O)O)NC(=O)C(C)(C)NC(=O)C(C)(C)NC(=O)[C@@H](NC(=O)[C@H](CCCCNC(C)=O)NC(=O)[C@H](C)NC(=O)[C@H](CCCNC(=N)N)NC(=O)[C@@H](NC(=O)[C@H](CCCCN)NC(=O)[C@H](CCC(=O)O)NC(=O)[C@H](CCCNC(=N)N)NC(=O)CNC(=O)[C@H](CCC(=O)O)NC(=O)[C@H](CC(C)C)NC(C)=O)C(C)C)[C@@H](C)CC)[C@@H](C)O)C(=O)O)C(=O)O)C(N)=O)C(=O)O)C(=O)O` [compound 159] (Ac-LEGREKVRAK(Ac)I[Aib][Aib]EG[Nle]STFS[αMeK]RKK(Ac)[AEEA][AEEA][AEEA][AEEA][γGlu][γGlu]K([γGlu-γGlu-Palmitoyl])-NH2): the EC50 turned out to be 0.02 nM and the Emax stood at 88%.

With `CCCCCCCCCCCCCCCCCC(=O)N[C@@H](CCC(=O)N[C@@H](CCC(=O)N[C@@H](CCC(=O)NCCOCCOCC(=O)NCCOCCOCC(=O)NCCOCCOCC(=O)NCCOCCOCC(=O)NCCCC[C@H](NC(=O)[C@H](CCCCNC(C)=O)NC(=O)[C@H](C)NC(=O)[C@H](CCCNC(N)=O)NC(=O)[C@](C)(CCCCN)NC(=O)[C@H](CO)NC(=O)[C@H](Cc1c[nH]c2ccccc12)NC(=O)[C@@H](NC(=O)[C@H](CO)NC(=O)[C@H](CCCC)NC(=O)CNC(=O)[C@H](CCC(=O)O)NC(=O)C(C)(C)NC(=O)C(C)(C)NC(=O)[C@@H](NC(=O)[C@H](CCCCNC(C)=O)NC(=O)[C@H](C)NC(=O)[C@H](CCCNC(=N)N)NC(=O)[C@@H](NC(=O)[C@H](CCCCN)NC(=O)[C@H](CCC(=O)O)NC(=O)[C@H](CCCNC(=N)N)NC(=O)CNC(=O)[C@H](CCC(=O)O)NC(=O)[C@H](CC(C)C)NC(C)=O)C(C)C)[C@@H](C)CC)[C@@H](C)O)C(N)=O)C(=O)O)C(=O)O)C(=O)O` [compound 132] (Ac-LEGREKVRAK(Ac)I[Aib][Aib]EG[Nle]STWS[αMeK][Cit]AK(Ac)K([AEEA-AEEA-AEEA-AEEA-γGlu-γGlu-γGlu-Stearoyl])-NH2), the Emax amounted to 87%.

On to “174 (Ac-LEGREKVRAQI[Aib][Aib]EG[Nle]STWS[Aib]RKKK-NH2; not fully specified (residue 25); printed as Ac-L-E-G-R-E-K-V-R-A-Q-I-Aib-Aib-E-G-Nle-S-T-W-S-Aib-R-K-K-K(PEG2-PEG2-PEG2-gE-gE-gE-Stea)-NH2) [compound 174]”, for which the EC50 came out at 0.41 nM.

`CCCCCCCCCCCCCCC(=O)N[C@@H](CCC(=O)N[C@@H](CCC(=O)N[C@@H](CCC(=O)N[C@@H](CCC(=O)NCCCC[C@H](NC(=O)COCCOCCNC(=O)COCCOCCNC(=O)COCCOCCNC(=O)COCCOCCNC(=O)[C@H](CCCCNC(C)=O)NC(=O)[C@H](C)NC(=O)[C@H](CCCNC(=N)N)NC(=O)[C@](C)(CCCCN)NC(=O)[C@H](CO)NC(=O)[C@H](Cc1ccccc1)NC(=O)[C@@H](NC(=O)[C@H](CO)NC(=O)[C@H](CCCC)NC(=O)CNC(=O)[C@H](CCC(=O)O)NC(=O)C(C)(C)NC(=O)C(C)(C)NC(=O)[C@@H](NC(=O)[C@H](CCCCNC(C)=O)NC(=O)[C@H](C)NC(=O)[C@H](CCCNC(=N)N)NC(=O)[C@@H](NC(=O)[C@H](CCCCN)NC(=O)[C@H](CCC(=O)O)NC(=O)[C@H](CCCNC(=N)N)NC(=O)CNC(=O)[C@H](CCC(=O)O)NC(=O)[C@H](CC(C)C)NC(C)=O)C(C)C)[C@@H](C)CC)[C@@H](C)O)C(N)=O)C(=O)O)C(=O)O)C(=O)O)C(=O)O` [compound 167] (Ac-LEGREKVRAK(Ac)I[Aib][Aib]EG[Nle]STFS[αMeK]RAK(Ac)[AEEA][AEEA][AEEA][AEEA]K([γGlu-γGlu-γGlu-γGlu-Pentadecanoyl])-NH2): the concentration giving a half-maximal response (EC50) is 0.05 nM and the maximal response (Emax) was 93%.

Consider `CCCCCCCCCCCCCCCC(=O)N[C@@H](CCC(=O)NCCCC[C@H](NC(=O)CC[C@H](NC(=O)CC[C@H](NC(=O)CC[C@H](NC(=O)COCCOCCNC(=O)COCCOCCNC(=O)COCCOCCNC(=O)COCCOCCNC(=O)[C@H](CCCCN)NC(=O)[C@H](CCCCN)NC(=O)[C@H](CCCCN)NC(=O)[C@H](CCCNC(=N)N)NC(=O)C(C)(C)NC(=O)[C@H](CO)NC(=O)[C@H](Cc1c[nH]c2ccccc12)NC(=O)[C@@H](NC(=O)[C@H](CO)NC(=O)[C@H](CCCC)NC(=O)CNC(=O)[C@H](CCC(=O)O)NC(=O)C(C)(C)NC(=O)C(C)(C)NC(=O)[C@@H](NC(=O)[C@H](CCC(N)=O)NC(=O)[C@H](C)NC(=O)[C@H](CCCNC(=N)N)NC(=O)[C@@H](NC(=O)[C@H](CCCCN)NC(=O)[C@H](CCC(=O)O)NC(=O)[C@H](CCCNC(=N)N)NC(=O)CNC(=O)[C@H](CCC(=O)O)NC(=O)[C@H](CC(C)C)NC(C)=O)C(C)C)[C@@H](C)CC)[C@@H](C)O)C(=O)O)C(=O)O)C(=O)O)C(N)=O)C(=O)O` [compound 108] (Ac-LEGREKVRAQI[Aib][Aib]EG[Nle]STWS[Aib]RKKK[AEEA][AEEA][AEEA][AEEA][γGlu][γGlu][γGlu]K([γGlu-Palmitoyl])-NH2), for which the EC50 came out at 0.15 nM and the Emax came to 94%.

As for `CCCCCCCCCCCCCCCC(=O)N[C@@H](CCC(=O)N[C@@H](CCC(=O)N[C@@H](CCC(=O)NCCCC[C@H](NC(=O)[C@H](CCCCN)NC(=O)[C@H](CCCNC(=N)N)NC(=O)C(C)(C)NC(=O)[C@H](CO)NC(=O)[C@H](Cc1c[nH]c2ccccc12)NC(=O)[C@@H](NC(=O)[C@H](CO)NC(=O)[C@H](CCCC)NC(=O)CNC(=O)[C@H](CCC(=O)O)NC(=O)C(C)(C)NC(=O)C(C)(C)NC(=O)[C@@H](NC(=O)[C@H](CCC(N)=O)NC(=O)[C@H](C)NC(=O)[C@H](CCCNC(=N)N)NC(=O)[C@@H](NC(=O)[C@H](CCCCN)NC(=O)[C@H](CCC(=O)O)NC(=O)[C@H](CCCNC(=N)N)NC(=O)CNC(=O)[C@H](CCC(=O)O)NC(=O)[C@H](CC(C)C)NC(C)=O)C(C)C)[C@@H](C)CC)[C@@H](C)O)C(N)=O)C(=O)O)C(=O)O)C(=O)O` [compound 8] (Ac-LEGREKVRAQI[Aib][Aib]EG[Nle]STWS[Aib]RKK([γGlu-γGlu-γGlu-Palmitoyl])-NH2), the EC50 was 26.7 nM and the Emax was found to be 98%.

As for `CCCCCCCCCCCCCCCC(=O)N[C@@H](CCC(=O)N[C@@H](CCC(=O)N[C@@H](CCC(=O)NCCOCCOCC(=O)NCCCC[C@H](NC(=O)[C@H](CCCCN)NC(=O)[C@H](CCCNC(=N)N)NC(=O)C(C)(C)NC(=O)[C@H](CO)NC(=O)[C@H](Cc1c[nH]c2ccccc12)NC(=O)[C@@H](NC(=O)[C@H](CO)NC(=O)[C@H](CCCC)NC(=O)CNC(=O)[C@H](CCC(=O)O)NC(=O)C(C)(C)NC(=O)C(C)(C)NC(=O)[C@@H](NC(=O)[C@H](CCC(N)=O)NC(=O)[C@H](C)NC(=O)[C@H](CCCNC(=N)N)NC(=O)[C@@H](NC(=O)[C@H](CCCCN)NC(=O)[C@H](CCC(=O)O)NC(=O)[C@H](CCCNC(=N)N)NC(=O)CNC(=O)[C@H](CCC(=O)O)NC(=O)[C@H](CC(C)C)NC(C)=O)C(C)C)[C@@H](C)CC)[C@@H](C)O)C(N)=O)C(=O)O)C(=O)O)C(=O)O` [compound 55] (Ac-LEGREKVRAQI[Aib][Aib]EG[Nle]STWS[Aib]RKK([AEEA-γGlu-γGlu-γGlu-Palmitoyl])-NH2), the Emax turned out to be 94%.
